According to PMC4558462, “A new small molecule inhibitor of soluble guanylate cyclase” (Bioorganic & Medicinal Chemistry, 2015):
“Also recorded” adds a separate entry of the source. Like-named read-outs stand apart in the source and are kept apart here.

Key:
[1] = target: T1, purified bovine lung sGC (Bos taurus, UniProt P16068+P19687); assay: Soluble guanylate cyclase activity assay (cGMP radioimmunoassay); type: biochemical; settings: for inhibition of sGC enzyme activity (in words): discussion of Table 1
T1 construct: screened at 100 μM against purified bovine lung sGC; purchased Enzo lifesciences ALX-202-039-C005; host or cells: bovine lung
T1 sequence (P19687 1-691): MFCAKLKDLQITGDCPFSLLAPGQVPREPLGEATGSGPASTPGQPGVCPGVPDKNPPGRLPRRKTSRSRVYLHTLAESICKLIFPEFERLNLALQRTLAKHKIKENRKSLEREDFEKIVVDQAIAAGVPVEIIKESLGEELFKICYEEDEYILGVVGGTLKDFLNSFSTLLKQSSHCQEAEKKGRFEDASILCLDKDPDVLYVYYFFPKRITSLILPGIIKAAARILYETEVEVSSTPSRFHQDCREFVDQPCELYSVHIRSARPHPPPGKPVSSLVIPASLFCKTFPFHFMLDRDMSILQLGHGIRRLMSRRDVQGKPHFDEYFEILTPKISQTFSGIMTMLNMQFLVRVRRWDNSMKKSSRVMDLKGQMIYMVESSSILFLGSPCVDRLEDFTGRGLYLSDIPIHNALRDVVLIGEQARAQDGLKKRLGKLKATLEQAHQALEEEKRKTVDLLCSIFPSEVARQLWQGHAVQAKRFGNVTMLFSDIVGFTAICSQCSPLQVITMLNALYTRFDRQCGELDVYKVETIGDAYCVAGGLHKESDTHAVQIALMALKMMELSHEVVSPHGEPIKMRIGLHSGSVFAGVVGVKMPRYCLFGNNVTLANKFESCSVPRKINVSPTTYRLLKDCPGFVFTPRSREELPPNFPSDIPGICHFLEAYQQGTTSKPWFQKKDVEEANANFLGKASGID
T1 sequence (P16068 1-619): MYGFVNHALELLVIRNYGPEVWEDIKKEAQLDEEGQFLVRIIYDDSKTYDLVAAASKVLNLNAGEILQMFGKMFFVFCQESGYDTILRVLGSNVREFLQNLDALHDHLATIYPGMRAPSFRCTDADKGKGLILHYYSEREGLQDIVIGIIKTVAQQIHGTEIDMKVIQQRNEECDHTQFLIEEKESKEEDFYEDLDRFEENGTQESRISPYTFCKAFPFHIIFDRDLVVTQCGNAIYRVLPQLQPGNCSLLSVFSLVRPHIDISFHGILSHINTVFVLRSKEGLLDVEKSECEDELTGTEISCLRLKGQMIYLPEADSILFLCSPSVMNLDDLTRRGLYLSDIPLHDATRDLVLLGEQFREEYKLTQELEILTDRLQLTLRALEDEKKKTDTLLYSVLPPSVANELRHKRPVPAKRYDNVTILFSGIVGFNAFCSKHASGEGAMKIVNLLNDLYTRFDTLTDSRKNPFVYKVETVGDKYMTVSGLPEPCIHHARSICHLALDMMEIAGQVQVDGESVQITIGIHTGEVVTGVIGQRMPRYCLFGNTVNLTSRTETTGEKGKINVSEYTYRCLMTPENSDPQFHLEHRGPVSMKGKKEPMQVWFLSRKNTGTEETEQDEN
Experimental: Virtual screening was performed by similarity searches using MACCS fingerprints at 85% and 75% Tanimoto of commercial libraries and the selected compounds were screened at 100 μM against purified bovine lung sGC using diethylamine NONOate (30 nM) as the NO donor. Enzyme activity was determined by measuring cGMP production using a standard cGMP [^3H] radioimmunoassay.[21,22]
[…] Compounds were added at 100 μM prior to adding the NO donor DEA/NO (30 nM) or clamped NO concentrations. cGMP generation was allowed to proceed for two minutes, after which aliquots were withdrawn and inactivated by boiling in 50 mM Tris, 4 mM EDTA buffer. cGMP formation was measured by a standard radioimmunoassay.

[2] = target: T2, sGCcat (Homo sapiens, UniProt Q02108+Q02153); assay: SPR binding to catalytic domain of sGC; settings: for sGCcat (SPR) binding norm. resp. (RU): Biacore T200, 25 °C; for binding to sGCcat (in words): discussion of Table 1
T2 construct: a smaller construct of the catalytic domain (sGCcat)
T2 sequence (Q02108 481-608 limits assumed): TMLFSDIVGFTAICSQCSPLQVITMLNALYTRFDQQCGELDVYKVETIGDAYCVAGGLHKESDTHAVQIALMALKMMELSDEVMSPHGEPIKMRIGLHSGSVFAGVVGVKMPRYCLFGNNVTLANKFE
T2 sequence (Q02153 421-554 limits assumed): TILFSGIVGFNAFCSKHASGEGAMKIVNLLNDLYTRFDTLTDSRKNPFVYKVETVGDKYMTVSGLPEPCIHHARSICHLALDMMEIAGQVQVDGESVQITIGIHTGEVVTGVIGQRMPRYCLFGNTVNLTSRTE
Experimental: We have previously described a surface plasmon resonance-based assay for the detection of binding of small molecules to full-length sGC and a smaller construct of the catalytic domain (sGCcat).[24] This assay was used to measure the binding of the compounds to sGCcat.[24] […] The position of the hydroxyl group can be changed whilst retaining binding strength and activity.
Surface plasmon resonance (SPR) experiments were performed with a Biacore T200 instrument at 25 °C. Data processing and analysis were performed using BIAevaluation software and Scrubber2. All sensorgrams were double referenced by subtracting the response in a reference flowcell and a blank sample. Materials and methods used were the same as previously published.[24]

[3] = synthesised analogues, 100 μM, read-out: sGC activity% inhibition at 100 μM
[4] = virtual screening hits, 100 μM compound, diethylamine NONOate 30 nM as NO donor, read-out: % inhibition of sGC activity at 100 μM compound
[5] = read-out: % inhibition of sGC activity at 100 μM compound

| Compound | inhibition at 100 µM [1, 3] | sGCcat (SPR) binding norm. resp. (RU) [2] | inhibition at 100 µM [1, 4] | inhibition at 100 µM [1, 5] | inhibition of sGC enzyme activity (in words) [1] | binding to sGCcat (in words) [2] |
| --- | --- | --- | --- | --- | --- | --- |
| Oc1cccc(Nc2nc3ccc(C(F)(F)F)cc3nc2Nc2cccc(O)c2)c1 [Compound 22, 3,3′-((6-(Trifluoromethyl)quinoxaline-2,3-diyl)bis(azanediyl))diphenol] | 21.1% | 3.0 ± 0.5 RU |  |  |  |  |
| Clc1cccc(Nc2ncnc3ccccc23)c1Cl [Compound 5] |  |  | 51% |  |  |  |
| O=[N+]([O-])c1ccccc1Nc1nc2nonc2nc1Nc1ccccc1[N+](=O)[O-] [Compound 8] |  |  |  | 90% |  |  |
| COc1ccc(Nc2nc3ccc([N+](=O)[O-])cc3nc2Nc2ccc(OC)cc2)cc1 [Compound 15, N2,N3-Bis(4-methoxyphenyl)-6-nitroquinoxaline-2,3-diamine] |  | 1.0 ± 0.3 RU |  |  | biochemically inactive | reduced its binding strength |
| Oc1ccc(Nc2nc3ccccc3nc2Nc2ccc(O)cc2)cc1 [Compound 20, 4,4′-(Quinoxaline-2,3-diylbis(azanediyl))diphenol] |  | 12.4 ± 0.1 RU |  |  | no significant inhibition | higher binding; also recorded: only a small decrease in binding |
| 6,7-Bis((3-hydroxyphenyl)amino)-N-methyl-2-naphthamide [Compound 28] |  | 9.6 ± 0.3 RU |  |  |  | higher binding |
| O=[N+]([O-])c1ccc2nc(Nc3ccc(F)cc3)c(Nc3ccc(F)cc3)nc2c1 [Compound 19, N2,N3-Bis(4-fluorophenyl)-6-nitroquinoxaline-2,3-diamine] |  | 1.9 ± 1.8 RU |  |  | biochemically inactive | reduced its binding strength |
| CC(=O)Nc1ccc(Nc2nc3ccc([N+](=O)[O-])cc3nc2Nc2ccc(NC(C)=O)cc2)cc1 [Compound 17, N,N′-(((6-Nitroquinoxaline-2,3-diyl)bis(azanediyl))bis(4,1-phenylene))diacetamide] |  | 0.8 ± 0.3 RU |  |  | biochemically inactive | reduced its binding strength |
| O=[N+]([O-])c1ccc2nc(Nc3ccccc3)c(Nc3ccccc3)nc2c1 [Compound 16, 6-Nitro-N2,N3-diphenylquinoxaline-2,3-diamine] |  | 2.6 ± 0.2 RU |  |  |  |  |
| Fc1cccc(Nc2nc3nonc3nc2Nc2cccc(F)c2)c1 [Compound 7] |  |  | 90% |  |  |  |
| CC(=O)c1ccc(Nc2nc3cc([N+](=O)[O-])c([N+](=O)[O-])cc3nc2Nc2cccc(C(C)=O)c2)cc1 [Compound 9] |  |  |  | 73% |  |  |
| Nc1ccc2nc(Nc3ccc(O)cc3)c(Nc3ccc(O)cc3)nc2c1 [Compound 29, 4,4′-((6-Aminoquinoxaline-2,3-diyl)bis(azanediyl))diphenol] |  | 9.9 ± 0.2 RU |  |  | do not inhibit the enzyme activity | higher binding; also recorded: bind to the receptor |
| CNC(=O)c1ccc2nc(Nc3ccc(O)cc3)c(Nc3ccc(O)cc3)nc2c1 [Compound 27, 2,3-Bis((4-hydroxyphenyl)amino)-N-methylquinoxaline-6-carboxamide] |  | 1.1 ± 0.3 RU |  |  |  |  |
| N#Cc1ccc2nc(Nc3cccc(O)c3)c(Nc3cccc(O)c3)nc2c1 [Compound 24, 2,3-Bis((3-hydroxyphenyl)amino)quinoxaline-6-carbonitrile] |  | 10.5 ± 0.5 RU |  |  | do not inhibit the enzyme activity | bind to the receptor |
| N#Cc1ccc2nc(Nc3ccc(O)cc3)c(Nc3ccc(O)cc3)nc2c1 [Compound 23, 2,3-Bis((4-hydroxyphenyl)amino)quinoxaline-6-carbonitrile] |  | 4.5 ± 2 RU |  |  | do not inhibit the enzyme activity | bind to the receptor |
| Oc1ccc(Nc2nc3ccc(C(F)(F)F)cc3nc2Nc2ccc(O)cc2)cc1 [Compound 21, 4,4′-((6-(Trifluoromethyl)quinoxaline-2,3-diyl)bis(azanediyl))diphenol] | 44.4% | 6.4 ± 0.5 RU |  |  |  | higher binding |
| CC(=O)Nc1cccc(Nc2nc3ccc([N+](=O)[O-])cc3nc2Nc2cccc(NC(C)=O)c2)c1 [Compound 18, N,N′-(((6-Nitroquinoxaline-2,3-diyl)bis(azanediyl))bis(3,1-phenylene))diacetamide] |  | 3.0 ± 1.0 RU |  |  | biochemically inactive | reduced its binding strength |
| O=[N+]([O-])c1ccc2nc(Nc3cccc(O)c3)c(Nc3cccc(O)c3)nc2c1 [Compound 14, 3,3′-((6-Nitroquinoxaline-2,3-diyl)bis(azanediyl))diphenol] | 41.4% | 11.6 ± 0.8 RU |  |  |  | higher binding |
| Oc1ccc(Nc2nc3ccc(Cl)cc3nc2Nc2ccc(O)cc2)cc1 [Compound 25, 4,4′-((6-Chloroquinoxaline-2,3-diyl)bis(azanediyl))diphenol] |  | 9.7 ± 0.5 RU |  |  | do not inhibit the enzyme activity | bind to the receptor |
| Oc1cccc(Nc2nc3ccc(Cl)cc3nc2Nc2cccc(O)c2)c1 [Compound 26, 3,3′-((6-Chloroquinoxaline-2,3-diyl)bis(azanediyl))diphenol] |  | 9.0 ± 0.4 RU |  |  | do not inhibit the enzyme activity | bind to the receptor |
| N#Cc1cc(Nc2cccc(Cl)c2)c(Nc2cccc(Cl)c2)cc1C#N [Compound 6] |  |  | 51% |  |  |  |
